Laboratory results from paper PMC10459693, “Toward Stability Enhancement of NTS1R-Targeted Radioligands: Structural Interventions on [^99mTc]Tc-DT1” (Pharmaceutics, 2023).
Read-outs that look alike come from different tables or passages of the source. Peptide text beside a SMILES is read from it. * marks the point of attachment. Palmitoyl = CCCCCCCCCCCCCCCC(=O)*; X1 = NCCNCC(CNCCN)C(=O)*

How the values were obtained:
[1] = Radioligand metabolic stability in peripheral mouse blood (radio-HPLC); type: in vivo, mice; conditions: peripheral mouse blood 5 min pi
Experimental: For the assessment of in vivo stability of [^99mTc]Tc-DT7/8/9, healthy Swiss Albino mice (33 animals, >8 weeks of age, body weight: 30 ± 5 g) were obtained from NCSR “Demokritos” Animal House (Athens, Greece). Animals were injected through the tail vein with the radioligand (100 μL, 2 nmol in vehicle: PBS/EtOH 9/1 v/v, with the addition of 0.1% Tween-80 in the case of [^99mTc]Tc-DT9) plus vehicle (100 μL; controls) or plus Lis (100 μg in 100 μL vehicle; Lis). Additional mice groups received per os a suspension of Entresto® (200 μL, 12 mg, 30 min prior to the i.v. injection of the radioligand plus vehicle—Entresto® group; or the i.v. injection of the radioligand plus Lis—Entresto®+Lis group). Animals were euthanized 5 min post injection (pi), and blood samples were drawn from the heart via a prechilled insulin syringe and transferred rapidly into pre-cooled 1.5 mL LoBind Eppendorf tubes containing EDTA (20 μL, 0.1 mM EDTA), and the collected radioactivity was measured in a dose calibrator (CURIEMENTOR 4, PTW Freiburg-GmbH; Freiburg, Germany). The tubes were centrifuged for 10 min at 2000× g at 4 °C in a Hettich Universal 320 R centrifuge (Tuttlingen, Germany). The plasma was collected, diluted in a 1:1 v/v ratio with MeCN, and thoroughly mixed; sample tubes were again centrifuged for 10 min at 15000× g at 4 °C. The supernatant was collected and the volume reduced to 50–100 μL under a gentle flux of N2 and mild heating at 60 °C. […] Sample activity was measured in the dose calibrator, and aliquots were analyzed by radio-HPLC on a Symmetry Shield RP18 cartridge column (5 μm, 3.9 mm × 20 mm; Waters, Eschborn, Germany) eluted at a flow rate of 1 mL/min with the linear gradient (system 2): from 100% A/0% B to 60% A/40% B in 40 min (A: 0.1% aqueous TFA; B: MeCN). […] The tR of intact [^99mTc]Tc-DT7, [^99mTc]Tc-DT8, or [^99mTc]Tc-DT9 was determined by co-injection of blood samples processed as above with an aliquot of the labeling solution. […]

[2] = Biodistribution in SCID mice bearing AsPC-1 xenografts; type: in vivo; conditions: male, mouse, iv, total radioactivity; for tissue uptake at 4 h: 4 h pi; for tissue uptake at 24 h: 24 h pi
Experimental: Twenty male severe combined immunodeficiency (SCID) mice (23.1 ± 1.6 g body weight, six weeks of age on arrival day; NCSR “Demokritos” Animal House, Athens, Greece) were used in the biodistribution experiments. Animals were subcutaneously inoculated in their right flanks with a sterile suspension of freshly harvested AsPC-1 cells (150 μL, 5 × 10^6 cells/animal), and 3–4 weeks later, they developed well-palpable tumors at the implantation sites. During this period, mice were housed in suitable facilities under sterile conditions with 12 h day/night cycles and were provided with sterilized chow food and drinking water ad libitum. At the date of the experiment, animals were randomly divided in groups of four and received through the tail vein a bolus of [^99mTc]Tc-DT9 (100 μL, 3 pmol in vehicle: PBS/EtOH 9/1 v/v with the addition of 0.1% Tween-80) plus vehicle (100 μL; controls at 4 and 24 h pi) or plus Lis (100 μg in 100 μL vehicle); the latter groups had additionally received per os 30 min in advance Entresto® (200 μL, 12 mg; Entresto®+Lis groups at 4 and 24 h pi). A further 4 h group of animals was treated with Entresto®, and 30 min later, mice were co-injected with excess NT and Lis (100 μg NT and 100 μg Lis in 100 μL vehicle—NTS1R block). At the predetermined time intervals, mice were euthanized and weighted, and their blood, organs, and tissue samples of choice as well as the implanted tumors were collected and weighted. Sample radioactivity was measured on the γ-counter together with proper standards of the injected dose. Results were calculated as percentage of injected activity per gram tissue (%IA/g) and provided as mean %IA/g values ± sd. For comparisons, a two-way ANOVA with Tukey’s post hoc analysis was adopted (PRISM^TM 6.0 GraphPad Software, San Diego, CA, USA). p-values < 0.05 were considered statistically significant.

[3] = AsPC-1 tumor, 3 pmol, Controls, read-out: uptake in AsPC-1 Tumor
[4] = AsPC-1 tumor, Entresto+Lis, read-out: uptake in AsPC-1 Tumor
[5] = blood, 3 pmol, Controls, read-out: uptake in Blood
[6] = blood, Entresto+Lis, read-out: uptake in Blood
[7] = heart, 3 pmol, Controls, read-out: uptake in Heart
[8] = heart, Entresto+Lis, read-out: uptake in Heart
[9] = intestines, 3 pmol, Controls, read-out: uptake in Intestines
[10] = intestines, Entresto+Lis, read-out: uptake in Intestines
[11] = kidneys, 3 pmol, Controls, read-out: uptake in Kidneys
[12] = kidneys, Entresto+Lis, read-out: uptake in Kidneys
[13] = liver, 3 pmol, Controls, read-out: uptake in Liver
[14] = liver, Entresto+Lis, read-out: uptake in Liver
[15] = lungs, 3 pmol, Controls, read-out: uptake in Lungs
[16] = lungs, Entresto+Lis, read-out: uptake in Lungs
[17] = muscle, 3 pmol, Controls, read-out: uptake in Muscle
[18] = muscle, Entresto+Lis, read-out: uptake in Muscle
[19] = pancreas, 3 pmol, Controls, read-out: uptake in Pancreas
[20] = pancreas, Entresto+Lis, read-out: uptake in Pancreas
[21] = spleen, 3 pmol, Controls, read-out: uptake in Spleen
[22] = spleen, Entresto+Lis, read-out: uptake in Spleen
[23] = stomach, 3 pmol, Controls, read-out: uptake in Stomach
[24] = stomach, Entresto+Lis, read-out: uptake in Stomach

CCCCCCCCCCCCCCCC(=O)NCCCC[C@H](NC(=O)C(CNCCN)CNCCN)C(=O)N[C@@H](CCCNC(=N)N)C(=O)N[C@@H](CCCNC(=N)N)C(=O)N1CCC[C@H]1C(=O)N[C@@H](Cc1ccc(O)cc1)C(=O)N[C@H](C(=O)N[C@@H](CC(C)C)C(=O)O)[C@@H](C)CC [[^99mTc]Tc-DT9, metal not drawn] (X1-K(Palmitoyl)RRPYIL-OH)
intact radioligand ([1]; Control): 98.06 ± 1.18 (n = 3) % | intact radioligand ([1]; Entresto): 97.33 ± 1.7 (n = 3) % | intact radioligand ([1]; Entresto+Lis): 93.72 ± 3.7 (n = 3) % | tissue uptake at 4 h [2, 3]: 6.15 ± 0.92 %ID/g | tissue uptake at 24 h [2, 3]: 3.32 ± 0.35 %ID/g | tissue uptake at 4 h ([2]; AsPC-1 tumor, Block (Entresto+Lis plus excess NT), read-out: uptake in AsPC-1 Tumor): 3.68 ± 0.92 %ID/g | tissue uptake at 4 h [2, 4]: 5.24 ± 0.27 %ID/g | tissue uptake at 24 h [2, 4]: 2.84 ± 0.43 %ID/g | tissue uptake at 4 h [2, 5]: 4.63 ± 0.55 %ID/g | tissue uptake at 4 h ([2]; blood, 3 pmol, all animal groups, read-out: radioactivity levels in the blood): > 4 %ID/g | tissue uptake at 24 h [2, 5]: 0.68 ± 0.18 %ID/g | tissue uptake at 4 h ([2]; blood, Block (Entresto+Lis plus excess NT), read-out: uptake in Blood): 4.25 ± 0.37 %ID/g | tissue uptake at 4 h [2, 6]: 4.32 ± 0.42 %ID/g | tissue uptake at 24 h [2, 6]: 0.7 ± 0.06 %ID/g | tissue uptake at 4 h [2, 7]: 3.12 ± 0.43 %ID/g | tissue uptake at 24 h [2, 7]: 0.64 ± 0.11 %ID/g | tissue uptake at 4 h ([2]; heart, Block (Entresto+Lis plus excess NT), read-out: uptake in Heart): 2.79 ± 0.47 %ID/g | tissue uptake at 4 h [2, 8]: 2.85 ± 2.48 %ID/g | tissue uptake at 24 h [2, 8]: 0.71 ± 0.06 %ID/g | tissue uptake at 4 h [2, 9]: 13 ± 4.6 %ID/g | tissue uptake at 24 h [2, 9]: 4.26 ± 0.61 %ID/g | tissue uptake at 4 h ([2]; intestines, Block (Entresto+Lis plus excess NT), read-out: uptake in Intestines): 6.27 ± 0.72 %ID/g | tissue uptake at 4 h [2, 10]: 7.9 ± 0.88 %ID/g | tissue uptake at 24 h [2, 10]: 5.37 ± 1.61 %ID/g | tissue uptake at 4 h [2, 11]: 9.53 ± 1.18 %ID/g | tissue uptake at 24 h [2, 11]: 3.81 ± 0.54 %ID/g | tissue uptake at 4 h ([2]; kidneys, Block (Entresto+Lis plus excess NT), read-out: uptake in Kidneys): 8.56 ± 0.87 %ID/g | tissue uptake at 4 h [2, 12]: 9.15 ± 0.62 %ID/g | tissue uptake at 24 h [2, 12]: 4.63 ± 0.15 %ID/g | tissue uptake at 4 h [2, 13]: 29.6 ± 3.77 %ID/g | tissue uptake at 24 h [2, 13]: 12.9 ± 1.66 %ID/g | tissue uptake at 4 h ([2]; liver, Block (Entresto+Lis plus excess NT), read-out: uptake in Liver): 30.9 ± 4.25 %ID/g | tissue uptake at 4 h [2, 14]: 28.4 ± 2.48 %ID/g | tissue uptake at 24 h [2, 14]: 17 ± 0.94 %ID/g | tissue uptake at 4 h [2, 15]: 8.8 ± 1.42 %ID/g | tissue uptake at 24 h [2, 15]: 3.42 ± 0.67 %ID/g | tissue uptake at 4 h ([2]; lungs, Block (Entresto+Lis plus excess NT), read-out: uptake in Lungs): 8.46 ± 1.26 %ID/g | tissue uptake at 4 h [2, 16]: 7.61 ± 0.64 %ID/g | tissue uptake at 24 h [2, 16]: 3.62 ± 0.94 %ID/g | tissue uptake at 4 h [2, 17]: 0.93 ± 0.13 %ID/g | tissue uptake at 24 h [2, 17]: 0.22 ± 0.02 %ID/g | tissue uptake at 4 h ([2]; muscle, Block (Entresto+Lis plus excess NT), read-out: uptake in Muscle): 0.82 ± 0.11 %ID/g | tissue uptake at 4 h [2, 18]: 0.81 ± 0.04 %ID/g | tissue uptake at 24 h [2, 18]: 0.24 ± 0.01 %ID/g | tissue uptake at 4 h [2, 19]: 2.1 ± 0.3 %ID/g | tissue uptake at 24 h [2, 19]: 0.75 ± 0.17 %ID/g | tissue uptake at 4 h ([2]; pancreas, Block (Entresto+Lis plus excess NT), read-out: uptake in Pancreas): 1.84 ± 0.41 %ID/g | tissue uptake at 4 h [2, 20]: 1.85 ± 0.18 %ID/g | tissue uptake at 24 h [2, 20]: 0.8 ± 0.07 %ID/g | tissue uptake at 4 h [2, 21]: 6.82 ± 1.11 %ID/g | tissue uptake at 24 h [2, 21]: 3.42 ± 0.54 %ID/g | tissue uptake at 4 h ([2]; spleen, Block (Entresto+Lis plus excess NT), read-out: uptake in Spleen): 6.18 ± 1.37 %ID/g | tissue uptake at 4 h [2, 22]: 5.47 ± 0.47 %ID/g | tissue uptake at 24 h [2, 22]: 4.47 ± 0.83 %ID/g | tissue uptake at 4 h [2, 23]: 3.09 ± 1.06 %ID/g | tissue uptake at 24 h [2, 23]: 1.73 ± 0.5 %ID/g | tissue uptake at 4 h ([2]; stomach, Block (Entresto+Lis plus excess NT), read-out: uptake in Stomach): 2.06 ± 0.47 %ID/g | tissue uptake at 4 h [2, 24]: 2.27 ± 0.38 %ID/g | tissue uptake at 24 h [2, 24]: 1.56 ± 0.31 %ID/g
